Experiments:
[1] = Antitumor activity against human UCI 101 ovarian cells xenografted in BALB/c mouse assessed as survival of mouse at 8 mg/kg, ip qod followed by six doses at 5 mg/kg qod measured upto 180 days (reference value: 0 (50 days)); assay type: functional; conditions: UCI101, ip, 4320 h, time 180 day
[2] = system: HCT-116; assay: Cytotoxicity against human HCT-116 cells assessed as reduction in cell viability at 10 umol/L incubated for 24 hrs by LDH assay; assay type: functional; conditions: HCT-116, 24 h, dose 10 µmol/L
[3] = system: MCF7; assay: Cytotoxicity against human MCF7 cells assessed as reduction in cell viability incubated for 24 hrs by SRB assay; assay type: functional, cell-based; conditions: MCF7, 24 h
[4] = system: MDA-MB-231; assay: Cytotoxicity against human MDA-MB-231 cells assessed as reduction in cell viability incubated for 24 hrs by SRB assay; assay type: functional, cell-based; conditions: MDA-MB-231, 24 h
[5] = system: DU-145; assay: Cytotoxicity against human DU-145 cells assessed as reduction in cell viability incubated for 24 hrs by SRB assay; assay type: functional, cell-based; conditions: DU-145, 24 h
[6] = system: HeLa; assay: Cytotoxicity against human HeLa cells assessed as reduction in cell viability incubated for 24 hrs by SRB assay; assay type: functional, cell-based
[7] = system: SK-N-SH; assay: Cytotoxicity against human SK-N-SH cells assessed as reduction in cell viability incubated for 24 hrs by SRB assay; assay type: functional, cell-based

Row | Compound | survival at 8 mg/kg [1] | inhibition at 10 µM [2] | IC50 [3] | IC50 [4] | IC50 [5] | IC50 [6] | IC50 [7]
1 | CN(C)c1ccc([P+](CCCCl)(c2ccc(N(C)C)cc2)c2ccc(N(C)C)cc2)cc1 | 37.5% | – | – | – | – | – | –
2 | C[n+]1ccc(-c2cc[n+](CCCCCCCCCC[P+](c3ccccc3)(c3ccccc3)c3ccccc3)cc2)cc1 | – | > 50% | – | – | – | – | –
3 | COc1cc(/C=C/C(=O)CC(=O)/C=C/c2ccc(OCCC[P+](c3ccccc3)(c3ccccc3)c3ccccc3)c(OC)c2)ccc1O | – | – | 5.31 µM | 8.33 µM | 8.62 µM | 7.69 µM | 8.19 µM
4 | CN(C)c1ccc([P+](CCCI)(c2ccc(N(C)C)cc2)c2ccc(N(C)C)cc2)cc1 | 12.5% | – | – | – | – | – | –
5 | COc1cc(/C=C/C(=O)CC(=O)/C=C/c2ccc(OCCC[P+](c3ccccc3)(c3ccccc3)c3ccccc3)c(OC)c2)ccc1OCCC[P+](c1ccccc1)(c1ccccc1)c1ccccc1 | – | – | 2.31 µM | 5.1 µM | 5.1 µM | 4.46 µM | 5.12 µM

Reference: ChEMBL document CHEMBL4699405, “TPP-based mitocans: a potent strategy for anticancer drug design” (RSC Med Chem, 2020)
